{
  "source": "paper PMC12587545",
  "about": "“Noncytotoxic polymyxin derivatives enhance antibiotic action against multidrug-resistant Gram-negative bacteria” (Antimicrobial Agents and Chemotherapy, 2025)",
  "key": {"E. cloacae": {"tested_on": "E. cloacae", "assay": "Checkerboard assay (antibiotic potentiation)", "assay_type": "cell-based, Enterobacter cloacae", "conditions": "E. cloacae 121887 (colistin-resistant)"}, "P. aeruginosa 259-96916": {"tested_on": "P. aeruginosa 259-96916", "assay": "Time-kill kinetics assay"}, "P. aeruginosa": {"tested_on": "P. aeruginosa", "assay": "Checkerboard assay (antibiotic potentiation)", "assay_type": "cell-based, Pseudomonas aeruginosa"}, "A. baumannii": {"tested_on": "A. baumannii", "assay": "Checkerboard assay (antibiotic potentiation)", "assay_type": "cell-based, Acinetobacter baumannii"}, "[1]": {"conditions": "P. aeruginosa 262-101856, antibiotic + compound 1"}, "[2]": {"conditions": "P. aeruginosa 264-105354, antibiotic + compound 1"}, "[3]": {"conditions": "P. aeruginosa PAO1, 0% FBS, zoliflodacin + compound 1"}, "[4]": {"conditions": "P. aeruginosa PAO1, [Mg2+] 0.4–0.5 mM, zoliflodacin + compound 1"}, "[5]": {"conditions": "P. aeruginosa PAO1, antibiotic + compound 1"}},
  "note": "Several values for one entry are separate records, joined by “and”; a condition that tells them apart may be missing. Equal values may be shown once. Read-outs that look alike come from different tables or passages of the source.",
  "data": [
    {"smiles": "C[C@@H]1CN2c3c(cc4c(N5C(=O)OC[C@@H]5C)noc4c3F)CC3(C(=O)NC(=O)NC3=O)[C@H]2[C@H](C)O1", "note": "[Zoliflodacin]", "values": [
      {"measurement": "Interpretation", "setting": "E. cloacae; antibiotic + compound 1", "value": "Synergy (FIC indices of ≤0.5 is synergistic)"},
      {"measurement": "MICantibiotic + compound", "setting": "E. cloacae; antibiotic MIC with 8 µg/mL (5 µM) compound 1", "value": 4, "unit": "µg/mL"},
      {"measurement": "MICantibiotic", "setting": "E. cloacae; antibiotic alone", "value": 32, "unit": "µg/mL"},
      {"measurement": "Potentiation", "setting": "E. cloacae; of antibiotic by 8 µg/mL (5 µM) compound 1", "value": 8, "unit": "fold"},
      {"measurement": "time-kill outcome", "setting": "P. aeruginosa 259-96916; 0.5 µg/mL zoliflodacin + 8 µg/mL (5 µM) compound 1", "value": "bacteriostatic effect"},
      {"measurement": "time-kill outcome", "setting": "P. aeruginosa 259-96916; 8 µg/mL zoliflodacin + 8 µg/mL (5 µM) compound 1", "value": "complete sterilization was achieved after 24 h"},
      {"measurement": "time-kill outcome", "setting": "P. aeruginosa 259-96916; monotherapy at 8 µg/mL, LB, 37°C, up to 24 h", "value": "growth curve similar to that of untreated bacteria"},
      {"measurement": "decrease in bacterial load from the starting inoculum and from the most active monotherapy", "setting": "P. aeruginosa 259-96916; zoliflodacin + compound 1, both 8 µg/mL, after 24 h", "value": "≥ 2", "unit": "log10"},
      {"measurement": "Interpretation", "setting": "P. aeruginosa; P. aeruginosa 259-96916, antibiotic + compound 1", "value": "Synergy (FIC indices of ≤0.5 is synergistic)"},
      {"measurement": "MICantibiotic + compound", "setting": "P. aeruginosa; P. aeruginosa 259-96916, antibiotic MIC with 8 µg/mL (5 µM) compound 1", "value": 0.125, "unit": "µg/mL"},
      {"measurement": "MICantibiotic", "setting": "P. aeruginosa; P. aeruginosa 259-96916, antibiotic alone", "value": 128, "unit": "µg/mL"},
      {"measurement": "Potentiation", "setting": "P. aeruginosa; P. aeruginosa 259-96916, of antibiotic by 8 µg/mL (5 µM) compound 1", "value": "≥1024-fold"},
      {"measurement": "FIC index", "setting": "P. aeruginosa; [1]", "value": "x < 0.078"},
      {"measurement": "Interpretation", "setting": "P. aeruginosa; [1]", "value": "Synergy (FIC indices of ≤0.5 is synergistic)"},
      {"measurement": "MICantibiotic + compound", "setting": "P. aeruginosa; P. aeruginosa 262-101856, antibiotic MIC with 8 µg/mL (5 µM) compound 1", "value": 2, "unit": "µg/mL"},
      {"measurement": "MICantibiotic", "setting": "P. aeruginosa; P. aeruginosa 262-101856, antibiotic alone", "value": ">128", "unit": "µg/mL"},
      {"measurement": "Potentiation", "setting": "P. aeruginosa; P. aeruginosa 262-101856, of antibiotic by 8 µg/mL (5 µM) compound 1", "value": "≥128-fold"},
      {"measurement": "FIC index", "setting": "P. aeruginosa; [2]", "value": "x < 0.066"},
      {"measurement": "Interpretation", "setting": "P. aeruginosa; [2]", "value": "Synergy (FIC indices of ≤0.5 is synergistic)"},
      {"measurement": "MICantibiotic + compound", "setting": "P. aeruginosa; P. aeruginosa 264-105354, antibiotic MIC with 8 µg/mL (5 µM) compound 1", "value": 0.5, "unit": "µg/mL"},
      {"measurement": "MICantibiotic", "setting": "P. aeruginosa; P. aeruginosa 264-105354, antibiotic alone", "value": ">128", "unit": "µg/mL"},
      {"measurement": "Potentiation", "setting": "P. aeruginosa; P. aeruginosa 264-105354, of antibiotic by 8 µg/mL (5 µM) compound 1", "value": "≥512-fold"},
      {"measurement": "MICantibiotic + compound", "setting": "P. aeruginosa; P. aeruginosa 101243 (colistin-resistant), antibiotic MIC with 8 µg/mL (5 µM) compound 1", "value": ">128", "unit": "µg/mL"},
      {"measurement": "MICantibiotic", "setting": "P. aeruginosa; P. aeruginosa 101243 (colistin-resistant), antibiotic alone", "value": ">128", "unit": "µg/mL"},
      {"measurement": "MICantibiotic + compound", "setting": "P. aeruginosa; P. aeruginosa 114228 (colistin-resistant), antibiotic MIC with 8 µg/mL (5 µM) compound 1", "value": ">128", "unit": "µg/mL"},
      {"measurement": "MICantibiotic", "setting": "P. aeruginosa; P. aeruginosa 114228 (colistin-resistant), antibiotic alone", "value": ">128", "unit": "µg/mL"},
      {"measurement": "Potentiation", "setting": "P. aeruginosa; P. aeruginosa PAO1, 0% FBS, of zoliflodacin by 8 µg/mL (5 µM) compound 1", "value": "≥32-fold"},
      {"measurement": "FIC index", "setting": "P. aeruginosa; [3]", "value": "x < 0.125"},
      {"measurement": "Interpretation", "setting": "P. aeruginosa; [3]", "value": "Synergy (FIC indices of ≤0.5 is synergistic)"},
      {"measurement": "MICantibiotic + compound", "setting": "P. aeruginosa; P. aeruginosa PAO1, 0% FBS, zoliflodacin MIC with 8 µg/mL (5 µM) compound 1", "value": 8, "unit": "µg/mL"},
      {"measurement": "MICantibiotic", "setting": "P. aeruginosa; P. aeruginosa PAO1, 0% FBS, zoliflodacin alone", "value": ">128", "unit": "µg/mL"},
      {"measurement": "Potentiation", "setting": "P. aeruginosa; P. aeruginosa PAO1, 10% FBS, of zoliflodacin by 8 µg/mL (5 µM) compound 1", "value": 64, "unit": "fold"},
      {"measurement": "Interpretation", "setting": "P. aeruginosa; P. aeruginosa PAO1, 10% FBS, zoliflodacin + compound 1", "value": "Synergy (FIC indices of ≤0.5 is synergistic)"},
      {"measurement": "MICantibiotic + compound", "setting": "P. aeruginosa; P. aeruginosa PAO1, 10% FBS, zoliflodacin MIC with 8 µg/mL (5 µM) compound 1", "value": 8, "unit": "µg/mL"},
      {"measurement": "MICantibiotic", "setting": "P. aeruginosa; P. aeruginosa PAO1, 10% FBS, zoliflodacin alone", "value": 512, "unit": "µg/mL"},
      {"measurement": "Potentiation", "setting": "P. aeruginosa; P. aeruginosa PAO1, 25% FBS, of zoliflodacin by 8 µg/mL (5 µM) compound 1", "value": 1, "unit": "fold"},
      {"measurement": "Interpretation", "setting": "P. aeruginosa; P. aeruginosa PAO1, 25% FBS, zoliflodacin + compound 1", "value": "Additive (0.5 < × ≤ 4 is additive)"},
      {"measurement": "MICantibiotic + compound", "setting": "P. aeruginosa; P. aeruginosa PAO1, 25% FBS, zoliflodacin MIC with 8 µg/mL (5 µM) compound 1", "value": 1024, "unit": "µg/mL"},
      {"measurement": "MICantibiotic", "setting": "P. aeruginosa; P. aeruginosa PAO1, 25% FBS, zoliflodacin alone", "value": 1024, "unit": "µg/mL"},
      {"measurement": "Potentiation", "setting": "P. aeruginosa; P. aeruginosa PAO1, 50% FBS, of zoliflodacin by 8 µg/mL (5 µM) compound 1", "value": 1, "unit": "fold"},
      {"measurement": "Interpretation", "setting": "P. aeruginosa; P. aeruginosa PAO1, 50% FBS, zoliflodacin + compound 1", "value": "Additive (0.5 < × ≤ 4 is additive)"},
      {"measurement": "MICantibiotic + compound", "setting": "P. aeruginosa; P. aeruginosa PAO1, 50% FBS, zoliflodacin MIC with 8 µg/mL (5 µM) compound 1", "value": 1024, "unit": "µg/mL"},
      {"measurement": "MICantibiotic", "setting": "P. aeruginosa; P. aeruginosa PAO1, 50% FBS, zoliflodacin alone", "value": 1024, "unit": "µg/mL"},
      {"measurement": "Potentiation", "setting": "P. aeruginosa; P. aeruginosa PAO1, [Mg2+] 25 mM, of zoliflodacin by 8 µg/mL (5 µM) compound 1", "value": 1, "unit": "fold"},
      {"measurement": "Interpretation", "setting": "P. aeruginosa; P. aeruginosa PAO1, [Mg2+] 25 mM, zoliflodacin + compound 1", "value": "Additive (0.5 < × ≤ 4 is additive)"},
      {"measurement": "MICantibiotic + compound", "setting": "P. aeruginosa; P. aeruginosa PAO1, [Mg2+] 25 mM, zoliflodacin MIC with 8 µg/mL (5 µM) compound 1", "value": 1024, "unit": "µg/mL"},
      {"measurement": "MICantibiotic", "setting": "P. aeruginosa; P. aeruginosa PAO1, [Mg2+] 25 mM, zoliflodacin alone", "value": 1024, "unit": "µg/mL"},
      {"measurement": "Potentiation", "setting": "P. aeruginosa; P. aeruginosa PAO1, [Mg2+] 0.4–0.5 mM, of zoliflodacin by 8 µg/mL (5 µM) compound 1", "value": "≥32-fold"},
      {"measurement": "FIC index", "setting": "P. aeruginosa; [4]", "value": "x < 0.125"},
      {"measurement": "Interpretation", "setting": "P. aeruginosa; [4]", "value": "Synergy (FIC indices of ≤0.5 is synergistic)"},
      {"measurement": "MICantibiotic + compound", "setting": "P. aeruginosa; P. aeruginosa PAO1, [Mg2+] 0.4–0.5 mM, zoliflodacin MIC with 8 µg/mL (5 µM) compound 1", "value": 8, "unit": "µg/mL"},
      {"measurement": "MICantibiotic", "setting": "P. aeruginosa; P. aeruginosa PAO1, [Mg2+] 0.4–0.5 mM, zoliflodacin alone", "value": ">128", "unit": "µg/mL"},
      {"measurement": "FIC index", "setting": "P. aeruginosa; [5]", "value": "x < 0.125"},
      {"measurement": "Interpretation", "setting": "P. aeruginosa; [5]", "value": "Synergy (FIC indices of ≤0.5 is synergistic)"},
      {"measurement": "Interpretation", "setting": "P. aeruginosa; P. aeruginosa PAO1, antibiotic + compound 3", "value": "Additive (0.5 < × ≤ 4 is additive)"},
      {"measurement": "MICantibiotic + compound", "setting": "P. aeruginosa; P. aeruginosa PAO1, antibiotic MIC with 8 µg/mL (5 µM) compound 1", "value": 8, "unit": "µg/mL"},
      {"measurement": "MICantibiotic + compound", "setting": "P. aeruginosa; P. aeruginosa PAO1, antibiotic MIC with 8 µg/mL (5 µM) compound 3", "value": 128, "unit": "µg/mL"},
      {"measurement": "MICantibiotic", "setting": "P. aeruginosa; P. aeruginosa PAO1, antibiotic alone", "value": "128 µg/mL and >128 µg/mL"},
      {"measurement": "Potentiation", "setting": "P. aeruginosa; P. aeruginosa PAO1, of antibiotic by 8 µg/mL (5 µM) compound 1", "value": "≥32-fold"},
      {"measurement": "Potentiation", "setting": "P. aeruginosa; P. aeruginosa PAO1, of antibiotic by 8 µg/mL (5 µM) compound 3", "value": 1, "unit": "fold"},
      {"measurement": "MICantibiotic + compound", "setting": "A. baumannii", "value": 0.031, "unit": "µg/mL"},
      {"measurement": "Potentiation", "setting": "A. baumannii", "value": "≥128-fold"},
      {"measurement": "Interpretation", "setting": "A. baumannii; A. baumannii 92247 (colistin-resistant), antibiotic + compound 1", "value": "Synergy (FIC indices of ≤0.5 is synergistic)"},
      {"measurement": "MICantibiotic + compound", "setting": "A. baumannii; A. baumannii 92247 (colistin-resistant), antibiotic MIC with 4 µg/mL (2 µM) compound 1", "value": 0.25, "unit": "µg/mL"},
      {"measurement": "MICantibiotic", "setting": "A. baumannii; A. baumannii 92247 (colistin-resistant), antibiotic alone", "value": 4, "unit": "µg/mL"},
      {"measurement": "Potentiation", "setting": "A. baumannii; A. baumannii 92247 (colistin-resistant), of antibiotic by 4 µg/mL (2 µM) compound 1", "value": "≥16-fold"},
      {"measurement": "FIC index", "setting": "A. baumannii; A. baumannii 110193, antibiotic + compound 1", "value": 0.156}
    ]}
  ]
}
